{
  "source": "patent US6037333A",
  "about": "“Microbe-inhibiting compositions” (Trustees of Tufts College, priority 1998, dated 2000)",
  "key": {"[1]": {"target": "mannose binding protein (MBP) of Acanthamoeba (Acanthamoeba castellanii, UniProt Q6J288)", "sequence (Q6J288 entry or part of it)": "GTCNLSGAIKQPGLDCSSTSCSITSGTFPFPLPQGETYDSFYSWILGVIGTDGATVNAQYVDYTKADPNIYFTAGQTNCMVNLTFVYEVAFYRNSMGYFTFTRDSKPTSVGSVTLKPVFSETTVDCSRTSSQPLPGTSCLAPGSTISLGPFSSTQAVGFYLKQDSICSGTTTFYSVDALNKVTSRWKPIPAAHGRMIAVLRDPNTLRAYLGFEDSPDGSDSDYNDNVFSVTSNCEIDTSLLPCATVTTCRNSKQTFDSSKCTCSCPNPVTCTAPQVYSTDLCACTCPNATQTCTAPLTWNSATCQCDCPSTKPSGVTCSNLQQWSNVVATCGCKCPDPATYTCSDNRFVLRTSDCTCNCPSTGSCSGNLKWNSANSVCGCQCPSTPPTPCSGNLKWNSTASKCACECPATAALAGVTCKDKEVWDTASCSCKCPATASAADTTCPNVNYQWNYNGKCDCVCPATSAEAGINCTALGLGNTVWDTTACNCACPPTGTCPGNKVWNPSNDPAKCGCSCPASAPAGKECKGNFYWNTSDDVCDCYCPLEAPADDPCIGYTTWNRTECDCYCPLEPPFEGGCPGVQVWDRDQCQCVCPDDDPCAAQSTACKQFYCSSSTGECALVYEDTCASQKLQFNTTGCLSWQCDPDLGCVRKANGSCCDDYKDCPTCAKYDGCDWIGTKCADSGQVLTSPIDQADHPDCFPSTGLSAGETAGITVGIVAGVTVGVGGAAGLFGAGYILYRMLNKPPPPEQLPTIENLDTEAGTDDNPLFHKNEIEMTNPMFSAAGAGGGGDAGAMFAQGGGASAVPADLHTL", "assay": "Solid-phase assay of 35S-labeled Acanthamoeba binding to Man-BSA coated wells", "set-up": "species or system Acanthamoeba strain MEEI 0184 (A. castellani)", "settings": "for Inhibition of Acanthamoeba binding to Man-BSA: at 100 mM; for Inhibition of amoebic binding to Man-BSA / affinity of amoebic lectin: no concentration stated", "from_the_text": "The Acanthamoeba strain MEEI 0184 (A. castellani based on morphological characteristics) was derived from an infected human cornea and used throughout this study. ATCC strain 30868 should have similar properties. The parasites were axenically cultured in PYG medium. A solid-phase assay characterized the sugar binding properties of the mannose binding protein (MBP) of Acanthamoeba (Z. Yang et al., Infect. Immun. 65:439-445, 1997). Briefly, wells of microtiter plates were coated with bovine serum albumin-α-D-mannopyranosyl phenylisothiocyanate (Man-BSA, 15-25 moles of α-D-mannopyranoside/mole albumin, 0.03 μg/ml, 50μl/well in 0.1 M sodium carbonate buffer, pH 9.6, 4° C. overnight). Nonspecific binding was blocked with 1% BSA in phosphate buffered saline (PBS, 1 hour, room temperature). After adding a 50-μl aliquot of ^35 S-labeled Acanthamoeba (5×10^6 cells/ml in PBS; 1 to 2 cpm/parasite, >95% trophozoites) to each well, the plates were incubated for 2 hours at room temperature. After rinsing the cells with PBS to remove unbound Acanthamoeba, 0.1 ml of 2% sodium dodecyl sulfate (SDS) was added to each well, and the radioactivity in aliquots of solubilized material was determined in a scintillation counter."}, "Acanthamoeba [2]": {"tested_on": "Acanthamoeba", "assay": "Acanthamoeba-induced cytopathic effect (CPE) assay, immortalized corneal epithelial cultures", "format": "cell-based", "settings": "for Inhibition of amoeba-induced CPE: no concentration stated", "description": "Corneal epithelial cells with extended life span were also produced.\n(§1) To characterize the role of carbohydrate-mediated host-parasite interactions in the Acanthamoeba-induced cytotoxicity of host cells, in vitro cytopathic assays were performed using both primary and immortalized cultures of corneal epithelium as host cells. Immortalized cells were assayed as confluent cultures in 24-well plates, and primary cells were assayed as confluent cells in 35-mm dishes or 6-well plates.\n(§2) The plates were incubated at 37° C. in a CO2 incubator and periodically examined under a phase-contrast microscope for the presence of cell-free plaques in the monolayer for up to 28-30 hours. Control wells contained host cells without the parasites. At the end of the incubation period, the cultures were stained with Giemsa (Diff-Quik, Dade Diagnostic Inc., Aguada, PR). Approximate cell density in each well was estimated by scanning the stained plates in a calibrated, computer-assisted Bio-Image Scanner (Millipore, Ann Arbor, Mich.). Cytopathic effect (CPE) was expressed as percentage of the optical density by the following formula: [formula]\nThe CPE assays were performed in the SFB media containing one or more saccharides to be tested.\nAfter staining with Giemsa, percent cell loss in each well was calculated based on the optical density in each well."}, "Acanthamoeba [3]": {"tested_on": "Acanthamoeba", "assay": "Acanthamoeba-induced CPE assay, primary cultures of corneal epithelium", "format": "cell-based", "settings": "primary cultures as target cells", "description": "In vitro cytopathic assays were performed using cell cultures of corneal epithelium as target cells. Primary cell cultures of rabbit corneal epithelium were prepared according to published protocols (M. M. Jumblatt, Invest. Opthalmol. Visual Sci. 24:1139-43, 1983) using rabbit eyes from Pel-Freez Biologicals (N. Panjwani et al., Invest. Opthalmol. Visual Sci. 31:689-695, 1990) (Rogers, AK). Generally, seventy-five eyes were processed at a time. Primary cultures have limited life span and can only be passaged 2 to 3 times without significant alteration in cell morphology.\nas §1\nas §2, with “The parasites (>95% trophozoites) were rinsed three times in a serum-free Eagle's minimum essential medium supplemented with 0.4% bovine serum albumin (SFB) and aliquots of the parasite suspension (0.2×10^5 to 1×10^6 parasites/ml SFB medium, 300 μl/well for 24-well plates and 500 μl/well for 6-well plates or 35-mm dishes) were added to wells of confluent epithelial cultures which had been rinsed and preincubated in SFB medium for 2 hours. The” for “The”\nPrimary cultures were less susceptible to amoeba-induced CPE, requiring 1×10^6 parasites/ml to completely destroy the monolayer within 24 hours. This parasite concentration was five times higher than that required to produce the same effect when immortalized cultures were used as target host cells."}, "[4]": {"tested_on": "Acanthamoeba-conditioned medium (ACM)", "assay": "CPE assay with Acanthamoeba-conditioned medium (ACM)", "format": "cell-based", "description": "To determine whether the mechanism modulating the CPE produced by intact amoeba and amoeba-conditioned medium (ACM) are distinct, CPE and assays were also performed using ACM in the presence and the absence of saccharides. To produce ACM, exponentially growing parasites (>95% trophozoites) in PYG media (Proteose Peptone-yeast extract-glucose , J. T. Bornes et al., J. Parasitol. 56:904-906, 1970) were rinsed twice with SFB medium and incubated in serum-free SFB medium at concentrations between 2×10^5 to 1×10^6 cells/ml in a CO2 incubator for 24 hours. After removing the parasites by centrifugation, each supernatant was analyzed for its ability to induce CPE. Saccharides (α-Man and GIcNAc, 50 mM) were added either to the ACM after it was produced or to serum-free medium used to produce an ACM. The ACM produced in the presence of the saccharides was also analyzed after removal of the saccharides by centrifugation through Centricon 3 microconcentrators (Amicon Inc., Beverly, Mass.).\nTo determine the role of the parasitic secretory factors in the cytopathogenic mechanism, chromium release and CPE assays were performed using ACM. In this study, parasites were incubated in the SFB media for 24 hours, centrifuged to remove parasites and the conditioned medium was tested for its ability to produce cytolysis and CPE. The ACM produced remarkable CPE. […] Approximately 6 to 8 hours following the incubation of the monolayer with the ACM, the cell sheet at the edges of the monolayer began to lift and roll inwards and eventually the entire monolayer lifted en bloc from the dish. These observations were similar to those seen when the monolayers were incubated with trophozoites in the presence of α-Man. Unlike the CPE induced by intact amoeba, the CPE induced by the ACM was not inhibited by either α-Man or GlcNAc when the sugars were added to the ACM after it was produced. In the next set of experiments, ACM was produced in the presence of α-Man or GIcNAc and was tested for CPE-inducing activity. […] In addition, the filtrate and retentate obtained after filtering the ACM in Centricon 3 microconcentrators were tested for CPE-inducing activity. When the ACM was produced in the absence of either sugar, substantially all of the CPE-inducing activity was found in the retentate obtained after Centricon filtration."}, "Acanthamoeba [5]": {"tested_on": "Acanthamoeba", "assay": "51Cr release assay of amoeba-induced cytolysis of corneal epithelium", "format": "cell-based", "description": "Chromium release experiments were performed to confirm the absence or occurrence of cytolysis. Visually, cell plaques or bare spots in a culture can indicate either cell loss by cytolysis, or separation of the cell from the culture surface, wherein detached cells, although initially viable, subsequently die. Cell lysis was quantified by measuring ^51 Cr release from prelabeled cells. After incubating confluent monolayer cultures of corneal epithelium in 24-well plates in cell culture medium containing Na^51 CrO4 (460 mCi/mg, 12 μCi/ml) for 18-20 hours, the cells were thoroughly rinsed and incubated with Acanthamoeba (1×10^6 parasites/ml SFB media). The four groups were (i) Acanthamoeba in media alone, (ii) Acanthamoeba in media containing α-Man, (iii) Acanthamoeba in media containing GlcNAc, and (iv) Acanthamoeba condition media. When approximately 50-70% cell loss occurred based on phase contrast microscopy, aliquots of cell-free conditioned medium from each well were analyzed. Supernatants from the four wells in each group were pooled before analysis. Percent specific release was calculated using E/T×100, where E is CPM released in test well minus CPM released in control (parasite-free) well and T is the total CPM (CPM cells+CPM supernatant in control wells). \"CPM cells\" was determined by incubating control wells with 0.5% Triton X-100. Conditioned media from each well was also analyzed for lactate dehydrogenase (LDH) release using an LDH assay kit (Sigma)."}, "Acanthamoeba [6]": {"tested_on": "Acanthamoeba", "assay": "Adhesion of amoebae to corneal epithelial cell monolayer", "format": "cell-based", "settings": "saccharide present in media; listed as GlcNAc"}, "[7]": {"target": "proteinases P1, P2, P3, P4", "assay": "Zymography with proteinase inhibitors, components P1-P4", "format": "biochemical, Acanthamoeba", "settings": "inhibitor 1 mM", "description": "(§3) To characterize the mechanism by which the mannose-mediated host-parasite interactions influence the amoeba-induced cytolysis and/or cytopathic effect, conditioned media obtained by incubating amoebae with primary cultures of corneal epithelium in the presence and absence of α-Man for 6 to 8 hours were analyzed by zymography. Media conditioned by only Acanthamoeba or only epithelial cells were also analyzed. Zymography was performed using separating gels containing 10% acrylamide and 2 mg/ml gelatin, essentially as described by D. E. Kleiner et al. (Anal Biochem. 218:325-329, 1994). Samples were diluted in the electrophoresis sample buffer (U. K. Laemmli, Nature 227:680-685, 1970) without mercaptoethanol and were applied to the gels. After electrophoresis, proteinases separated on the gels were renatured by incubating the gels in 2.5% Triton X-100 in 50 mM Tris-HCl, pH 7.5 to remove SDS. After incubating the gels for 18 hours in a developing buffer (50 mM Tris-HCl, pH 7.5 containing 10 mM CaCl2), the gels were stained with Coomassie brilliant blue. Areas of digestion were visualized as non-staining regions. In some experiments, samples were pre-treated with phenylmethylsulfonyl fluoride (PMSF, 1 mM), an inhibitor of […] for one hour prior to electrophoresis, or 1,10-phenanthroline (1 mM), an inhibitor of metalloproteinases, was added to the developing buffer."}, "proteinases E1, E2": {"tested_on": "proteinases E1, E2", "assay": "Zymography with proteinase inhibitors, media conditioned by epithelial cells alone", "format": "biochemical, rabbit", "settings": "inhibitor 1 mM", "description": "as §3"}},
  "note": "Entries after “also recorded” stand apart in the source; their conditions may differ.",
  "data": [
    {"smiles": "N[C@H]1C(O)O[C@H](CO)[C@@H](O)[C@@H]1O", "note": "(stereo partly drawn) [D-glucosamine]", "values": [
      {"measurement": "Inhibition of Acanthamoeba binding to Man-BSA", "setting": "[1]", "value": "did not inhibit"},
      {"measurement": "Toxicity to the epithelium", "setting": "corneal epithelium", "value": "Toxic"}
    ]},
    {"smiles": "N[C@@H]1C(O)O[C@H](CO)[C@@H](O)[C@@H]1O", "note": "(stereo partly drawn) [D-mannosamine]", "values": [
      {"measurement": "Inhibition of Acanthamoeba binding to Man-BSA", "setting": "[1]", "value": "did not inhibit"},
      {"measurement": "Inhibition of amoebic binding to Man-BSA / affinity of amoebic lectin", "setting": "[1]", "value": "did not inhibit"},
      {"measurement": "Inhibition of amoeba-induced CPE", "setting": "Acanthamoeba [2]", "value": "did not inhibit"},
      {"measurement": "Toxicity to the epithelium", "setting": "corneal epithelium", "value": "Toxic"}
    ]},
    {"smiles": "CC(=O)N[C@H]1C(O)O[C@H](CO)[C@@H](O)[C@@H]1O", "note": "(stereo partly drawn) [N-acetyl-D-glucosamine]", "values": [
      {"measurement": "Inhibition of amoebic binding to Man-BSA / affinity of amoebic lectin", "setting": "[1]; listed as GlcNAc", "value": "weak inhibitor"},
      {"measurement": "inhibition at 50000 µM", "setting": "[1]; read-out: Inhibition of binding, % at indicated conc.", "value": 50, "unit": "%"},
      {"measurement": "inhibition at 310 µM", "setting": "Acanthamoeba [2]; Acanthamoeba, in Oryctolagus cuniculus, at 0.31 mM, read-out: Inhibition of cytopathic effect (% inhib. at indicated conc.)", "value": 60, "unit": "%"},
      {"measurement": "Inhibition of amoeba-induced CPE", "setting": "Acanthamoeba [2]; listed as GlcNAc", "value": "inhibits CPE; also recorded: potent inhibitor; also recorded: nearly identical"},
      {"measurement": "Attachment of cell layer to culture dish", "setting": "Acanthamoeba [2]; primary and immortalized cultures, entire assay period of 28 hours", "value": "remained firmly adhered"},
      {"measurement": "Amoeba-induced cytolysis of corneal epithelial cells (microscopy, words)", "setting": "Acanthamoeba [2]; saccharide present in media", "value": "little evidence of cytolysis"},
      {"measurement": "Inhibition of amoeba-induced CPE", "setting": "Acanthamoeba [3]", "value": "inhibited"},
      {"measurement": "CPE-inducing activity of ACM produced with saccharide, after removal of saccharide by Centricon filtration", "setting": "[4]; saccharide 50 mM", "value": "did not have CPE-inducing activity"},
      {"measurement": "CPE-inducing activity of ACM produced in SFB containing the saccharide", "setting": "[4]; saccharide 50 mM in medium used to produce ACM", "value": "did not induce CPE"},
      {"measurement": "Inhibition of ACM-induced CPE", "setting": "[4]; sugar (50 mM) added to the ACM after it was produced", "value": "not inhibited"},
      {"measurement": "Percentage specific 51Cr release", "setting": "Acanthamoeba [5]; Acanthamoeba 1×10^6 parasites/ml in media containing the saccharide, media alone about 100", "value": "~80", "unit": "%"},
      {"measurement": "Inhibition of amoeba-induced cytolysis", "setting": "Acanthamoeba [5]; fifty millimolar, 51Cr release", "value": "10-20%"},
      {"measurement": "Adhesion of amoebae to the cell monolayer in presence of saccharide", "setting": "Acanthamoeba [6]", "value": "poor inhibitor; also recorded: adhered tightly"}
    ]},
    {"smiles": "O=S(=O)(F)Cc1ccccc1", "note": "[PMSF, phenylmethylsulfonyl fluoride]", "values": [
      {"measurement": "Susceptibility of component P1 (230 kD) to inhibitor", "setting": "[7]", "value": "susceptible"},
      {"measurement": "Susceptibility of component P2 (97 kD) to inhibitor", "setting": "[7]", "value": "susceptible"},
      {"measurement": "Susceptibility of component P3 (80 kD) to inhibitor", "setting": "[7]", "value": "resistant"},
      {"measurement": "Susceptibility of component P4 (55 kD) to inhibitor", "setting": "[7]", "value": "susceptible"},
      {"measurement": "Susceptibility of component E1 (93 kD) to inhibitor", "setting": "proteinases E1, E2", "value": "resistant"},
      {"measurement": "Susceptibility of component E2 (63 kD) to inhibitor", "setting": "proteinases E1, E2", "value": "resistant"}
    ]}
  ]
}
